Reference: article PMC3445474 (PLoS ONE, 2012)
“And” between values parts separate entries of the source, which are not always exact repeats. Identical values can stand only once. Like-named read-outs stand apart in the source and are kept apart here.

What was measured:
B/Johannesburg/99 virus = assay: Virus growth inhibition assay in MDCK cells (progeny virus by plaque assay); assay type: cell-based, influenza B virus; conditions: for activity at 0.25 µM: read-out: Virus yield (progeny virus, % of control)
Experimental: The infectivity of viruses was determined by plaque assay as described below. Ten-fold serial dilutions of virus samples were made in Hanks balanced salt solution (HBSS; GIBCO, Gland Island, NY, USA) and 0.1 ml of the dilutions was inoculated on MDCK cell monolayers in 6-well tissue culture plates (Corning, Lowell, MA, USA). After adsorption of the virus onto the cells for 30 min at room temperature, 1.6 ml of Leibovitz’s L15 medium (GIBCO, Gland Island, NY, USA) containing 0.6% SeaKem ME agarose (Lonza, Basel, Switzerland), 1.5% gelatin (Nacalai, Kyoto, Japan) and 2.5 µg/ml TPCK-trypsin was added to each well and allowed to solidify. The plates were incubated for 3 days at 34°C and the number of plaques was counted. Infectivity was expressed as plaque forming units (pfu) per ml.
The inhibition of virus growth by neuraminidase inhibitors in the presence or absence of bacterial neuraminidase was assayed by measuring the released progeny virus in the culture fluid of infected cells. MDCK cells seeded on 12-well tissue culture plates were inoculated with 50 µl of virus suspension at a MOI of 0.001 or 0.01. After the adsorption for 1 h on ice, 1 ml MEM supplemented with 2.5 µg/ml TPCK-trypsin containing neuraminidase inhibitor and/or bacterial neuraminidase was added to each well. At the indicated times of incubation at 37°C in 5% CO2, culture media were harvested and the virus titers, performed in triplicate wells, were determined by plaque assay.

[1] = system: viral and bacterial neuraminidases; assay type: biochemical, influenza viruses, bacteria, human saliva; conditions: read-out: IC50, viral, bacterial and saliva neuraminidases
A/Udorn/72 virus = assay: microbe, parasite or virus in culture; assay type: cell-based, influenza A virus; conditions: for activity at 0.25 µM: MDCK, read-out: Virus yield (progeny virus, % of control)
[2] = system: bacterial and salivary neuraminidases (S. pneumoniae, saliva, A. ureafaciens, V. cholerae RDE); assay type: biochemical, human saliva
[3] = system: neuraminidase of influenza viruses (A/Udorn/72(H3N2), A/Chiba/2009(H1N1)pdm and B/Johannesburg/99); assay type: biochemical, influenza virus
[4] = set-up: method as in PMID 10858364; conditions: 6 h after oral inhalation of 10 mg of zanamivir powder; cited from earlier work
[5] = Concentration of zanamivir in sputum after oral inhalation (clinical setting); assay type: in vivo; conditions: minutes after oral inhalation of 10 mg of zanamivir powder

**Q.** Which “Restoration of virus production by S. pneumoniae culture supernatant” value (B/Johannesburg/99 virus; 2.5 mM DANA + S. pneumoniae culture supernatant) does the source give for `CC(=O)N[C@H]1[C@H]([C@H](O)[C@H](O)CO)OC(C(=O)O)=C[C@@H]1O` [DANA, 2-Deoxy-2,3-dehydro-N-acetylneuraminic acid] here?
**A.** not restored

**Q.** And the “Effect on influenza virus production” value (B/Johannesburg/99 virus; 2.5 mM DANA, MDCK cells, MOI 0.001, 40 hpi)?
**A.** inhibited influenza virus production

**Q.** And the IC50 [1]?
**A.** 2 to 20 µM

**Q.** What about the “Effect on influenza virus production” value (A/Udorn/72 virus) of the same molecule?
**A.** inhibited influenza virus production

**Q.** And the “Restoration of virus production by S. pneumoniae culture supernatant” value (A/Udorn/72 virus)?
**A.** not restored

**Q.** Which results are given for `CC(=O)N[C@H]1[C@H]([C@H](O)[C@H](O)CO)OC(C(=O)O)=C[C@@H]1N=C(N)N` [zanamivir, Zanamivir]?
**A.** Concentrations at which bacterial neuraminidases were inhibited ([2]; Figure 2A): above 10 µM; IC50 ([2]; range over S. pneumoniae, saliva, A. ureafaciens, V. cholerae RDE): 100 to 5000 µM; activity at 0.25 µM (B/Johannesburg/99 virus; 250 nM zanamivir + Streptococcus pneumoniae culture supernatant (6 µunits/ml neuraminidase activity), MDCK cells, MOI 0.001, 40 hpi): 92%; activity at 0.25 µM (B/Johannesburg/99 virus; Influenza B virus, 250 nM zanamivir, MDCK cells, MOI 0.001, 40 hpi): 0.4%; Potency against influenza virus NA relative to bacterial neuraminidases [3]: approximately a million; Concentration of zanamivir in sputum [4]: ≤ 1,441 ng/ml and ≤ 4.3 µM; Concentration of zanamivir in sputum, calculated [5]: ≤ 5,870 ng/ml and ≤ 17.5 µM; activity at 0.25 µM (A/Udorn/72 virus; Influenza A virus): 2%; activity at 0.25 µM (A/Udorn/72 virus; Streptococcus pneumoniae): 84%
